Target: HCV RdRp (NS5B) (UniProt P26663)
Assay type: biochemical, hepatitis C virus

Chain of HCV RdRp (NS5B) (P26663 whole entry, looked up): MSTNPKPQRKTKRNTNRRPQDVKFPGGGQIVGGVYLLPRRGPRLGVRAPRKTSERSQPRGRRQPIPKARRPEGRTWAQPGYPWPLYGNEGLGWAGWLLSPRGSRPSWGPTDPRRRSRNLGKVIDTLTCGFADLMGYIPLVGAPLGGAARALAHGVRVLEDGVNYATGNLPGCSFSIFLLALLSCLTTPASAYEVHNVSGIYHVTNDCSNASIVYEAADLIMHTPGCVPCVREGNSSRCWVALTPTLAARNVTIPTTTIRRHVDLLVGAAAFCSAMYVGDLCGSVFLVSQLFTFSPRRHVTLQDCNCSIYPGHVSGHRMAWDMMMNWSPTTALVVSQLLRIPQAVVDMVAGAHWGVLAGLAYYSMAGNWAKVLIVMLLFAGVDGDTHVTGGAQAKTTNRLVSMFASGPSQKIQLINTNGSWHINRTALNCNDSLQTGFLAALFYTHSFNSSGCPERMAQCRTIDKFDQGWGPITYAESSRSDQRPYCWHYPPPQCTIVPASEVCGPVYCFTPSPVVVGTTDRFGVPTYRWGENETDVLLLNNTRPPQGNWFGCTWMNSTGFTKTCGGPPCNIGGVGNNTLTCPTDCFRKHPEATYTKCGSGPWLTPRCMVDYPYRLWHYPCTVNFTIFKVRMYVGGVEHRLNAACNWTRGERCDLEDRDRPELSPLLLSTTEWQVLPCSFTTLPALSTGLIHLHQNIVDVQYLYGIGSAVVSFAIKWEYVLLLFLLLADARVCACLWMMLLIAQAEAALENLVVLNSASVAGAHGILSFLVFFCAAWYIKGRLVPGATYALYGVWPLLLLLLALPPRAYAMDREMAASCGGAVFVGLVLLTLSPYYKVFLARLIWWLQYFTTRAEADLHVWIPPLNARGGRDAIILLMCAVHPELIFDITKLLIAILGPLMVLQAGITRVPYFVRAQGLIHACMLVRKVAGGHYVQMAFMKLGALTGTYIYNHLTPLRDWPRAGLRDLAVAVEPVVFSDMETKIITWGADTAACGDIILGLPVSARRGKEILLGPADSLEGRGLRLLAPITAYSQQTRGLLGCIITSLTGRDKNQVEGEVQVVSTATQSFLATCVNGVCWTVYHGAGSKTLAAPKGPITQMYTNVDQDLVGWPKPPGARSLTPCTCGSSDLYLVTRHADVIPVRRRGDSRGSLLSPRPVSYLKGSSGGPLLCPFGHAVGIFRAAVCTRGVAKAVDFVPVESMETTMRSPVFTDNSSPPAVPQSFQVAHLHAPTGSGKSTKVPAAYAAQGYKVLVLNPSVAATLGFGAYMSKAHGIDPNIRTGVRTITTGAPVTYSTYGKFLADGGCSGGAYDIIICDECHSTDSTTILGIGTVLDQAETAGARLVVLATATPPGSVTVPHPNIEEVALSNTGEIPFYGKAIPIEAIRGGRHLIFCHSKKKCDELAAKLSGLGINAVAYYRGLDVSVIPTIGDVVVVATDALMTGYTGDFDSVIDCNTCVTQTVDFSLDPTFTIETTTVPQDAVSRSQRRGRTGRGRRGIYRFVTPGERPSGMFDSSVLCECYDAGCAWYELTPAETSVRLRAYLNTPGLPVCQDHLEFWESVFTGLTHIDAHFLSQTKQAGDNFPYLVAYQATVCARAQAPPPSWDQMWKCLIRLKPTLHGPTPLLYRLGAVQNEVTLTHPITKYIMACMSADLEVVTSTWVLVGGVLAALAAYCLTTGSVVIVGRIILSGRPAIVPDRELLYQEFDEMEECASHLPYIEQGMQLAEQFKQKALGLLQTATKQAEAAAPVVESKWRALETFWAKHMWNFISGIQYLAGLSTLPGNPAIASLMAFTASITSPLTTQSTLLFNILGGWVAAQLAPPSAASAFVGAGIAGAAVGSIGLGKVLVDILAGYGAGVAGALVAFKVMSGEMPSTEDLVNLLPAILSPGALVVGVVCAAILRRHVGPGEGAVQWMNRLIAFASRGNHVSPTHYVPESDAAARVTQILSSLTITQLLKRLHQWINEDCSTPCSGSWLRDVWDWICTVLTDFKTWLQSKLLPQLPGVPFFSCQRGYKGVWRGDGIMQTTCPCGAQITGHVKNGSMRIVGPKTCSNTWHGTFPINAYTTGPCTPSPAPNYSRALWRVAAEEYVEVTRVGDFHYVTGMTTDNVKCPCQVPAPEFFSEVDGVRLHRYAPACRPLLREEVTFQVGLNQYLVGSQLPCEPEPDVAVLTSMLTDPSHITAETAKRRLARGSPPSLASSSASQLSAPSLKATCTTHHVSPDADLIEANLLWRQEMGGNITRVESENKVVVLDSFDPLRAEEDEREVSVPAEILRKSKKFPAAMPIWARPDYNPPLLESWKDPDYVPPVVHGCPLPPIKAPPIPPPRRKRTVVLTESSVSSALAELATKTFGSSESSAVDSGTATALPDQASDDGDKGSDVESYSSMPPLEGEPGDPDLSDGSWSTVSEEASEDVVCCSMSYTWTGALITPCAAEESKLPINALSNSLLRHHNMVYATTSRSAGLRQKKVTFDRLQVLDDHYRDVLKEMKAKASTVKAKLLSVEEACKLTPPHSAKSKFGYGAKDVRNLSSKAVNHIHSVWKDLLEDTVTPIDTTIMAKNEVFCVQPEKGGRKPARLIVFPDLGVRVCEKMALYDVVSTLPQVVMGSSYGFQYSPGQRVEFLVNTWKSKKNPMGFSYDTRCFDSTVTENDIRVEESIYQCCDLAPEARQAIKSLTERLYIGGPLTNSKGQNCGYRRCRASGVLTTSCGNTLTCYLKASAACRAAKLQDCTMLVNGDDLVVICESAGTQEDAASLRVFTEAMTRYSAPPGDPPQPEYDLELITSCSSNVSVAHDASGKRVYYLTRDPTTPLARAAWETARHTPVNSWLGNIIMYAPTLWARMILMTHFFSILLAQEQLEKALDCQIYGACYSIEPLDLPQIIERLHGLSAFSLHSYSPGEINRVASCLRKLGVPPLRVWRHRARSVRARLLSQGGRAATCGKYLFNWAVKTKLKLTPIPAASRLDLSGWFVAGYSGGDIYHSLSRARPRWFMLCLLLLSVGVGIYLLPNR

Compound	IC50
CC(C)(C)c1ccc(NC(=O)[C@H](Cc2ccc(CN)cc2)NC(=O)Nc2ccc(OCc3ccccc3)cc2)cc1 [Compound 174, (S)-3-(4-AMINOMETHYL-PHENYL)-2-[3-(4-BENZYLOXY-PHENYL)-UREIDO]-N-(4-TERT-BUTYL-PHENYL)-PROPIONAMIDE]	< 10 µM
Cc1ccc(NC(=O)C(Cc2ccc(CN)cc2)NC(=O)OCC2c3ccccc3-c3ccccc32)cc1 [Compound 175, (R)-[2-(4-AMINOMETHYL-PHENYL)-1-P-TOLYLCARBAMOYL-ETHYL]-CARBAMIC ACID 9H-FLUOREN-9-YLMETHYL ESTER]	< 10 µM
Cc1ccc(NC(=O)C(CCCCNC(=O)CN)NC(=O)OCC2c3ccccc3-c3ccccc32)cc1 [Compound 176, (S)-[5-(2-AMINO-ACETYLAMINO)-1-P-TOLYLCARBAMOYL-PENTYL]-CARBAMIC ACID 9H-FLUOREN-9-YLMETHYL ESTER]	< 10 µM
Cc1ccc(NC(=O)C(CCCNC(=O)CN)NC(=O)OCC2c3ccccc3-c3ccccc32)cc1 [Compound 177, (S)-[4-(2-AMINO-ACETYLAMINO)-1-P-TOLYLCARBAMOYL-BUTYL]-CARBAMIC ACID 9H-FLUOREN-9-YLMETHYL ESTER]	< 10 µM
Cc1ccc(NC(=O)C(CNC(=O)CCN)NC(=O)OCC2c3ccccc3-c3ccccc32)cc1 [Compound 178, (S)-[2-(3-AMINO-PROPIONYLAMINO)-1-P-TOLYLCARBAMOYL-ETHYL]-CARBAMIC ACID 9H-FLUOREN-9-YLMETHYL ESTER]	10 to 50 µM
Cc1ccc(NC(=O)C(CCNC(=O)CCN)NC(=O)OCC2c3ccccc3-c3ccccc32)cc1 [Compound 179, (S)-[3-(3-AMINO-PROPIONYLAMINO)-1-P-TOLYLCARBAMOYL-PROPYL]-CARBAMIC ACID 9H-FLUOREN-9-YLMETHYL ESTER]	10 to 50 µM
Cc1ccc(NC(=O)C(Cc2ccc(N)cc2)NC(=O)OCC2c3ccccc3-c3ccccc32)cc1 [Compound 180, (S)-[2-(4-AMINO-PHENYL)-1-P-TOLYLCARBAMOYL-ETHYL]-CARBAMIC ACID 9H-FLUOREN-9-YLMETHYL ESTER]	> 50 µM
CC(=O)NCCCCC(NC(=O)OCC1c2ccccc2-c2ccccc21)C(=O)Nc1ccc(C)cc1 [Compound 181, (S)-(5-ACETYLAMINO-1-P-TOLYLCARBAMOYL-PENTYL)-CARBAMIC ACID 9H-FLUOREN-9-YLMETHYL ESTER]	> 50 µM
Cc1ccc(NC(=O)CC2CN(C(=O)CCN)CCN2C(=O)OCC2c3ccccc3-c3ccccc32)cc1 (stereo not shown) [Compound 183, 4-(3-AMINO-PROPIONYL)-2-(P-TOLYLCARBAMOYL-METHYL)-PIPERAZINE-1-CARBOXYLIC ACID 9H-FLUOREN-9-YLMETHYL ESTER]	> 50 µM
Cc1ccc(NC(=O)CC2CN(C(=O)C(C)N)CCN2C(=O)OCC2c3ccccc3-c3ccccc32)cc1 [Compound 184, 4-((S)-2-AMINO-PROPIONYL)-2-(P-TOLYLCARBAMOYL-METHYL)-PIPERAZINE-1-CARBOXYLIC ACID 9H-FLUOREN-9-YLMETHYL ESTER]	> 50 µM
Cc1ccc(NC(=O)CC2CN(C(=O)C(C)N)CCN2C(=O)OCC2c3ccccc3-c3ccccc32)cc1 (stereo not shown) [Compound 185, 4-(R-2-AMINO-PROPIONYL)-2-(P-TOLYLCARBAMOYL-METHYL)-PIPERAZINE-1-CARBOXYLIC ACID 9H-FLUOREN-9-YLMETHYL ESTER]	> 50 µM
CC(=O)NCC(=O)N1CCN(C(=O)OCC2c3ccccc3-c3ccccc32)C(CC(=O)Nc2ccc(C)cc2)C1 (stereo not shown) [Compound 186, 4-(2-ACETYLAMINO-ACETYL)-2-(P-TOLYLCARBAMOYL-METHYL)-PIPERAZINE-1-CARBOXYLIC ACID 9H-FLUOREN-9-YLMETHYL ESTER]	> 50 µM
CCNCC(=O)N1CCN(C(=O)OCC2c3ccccc3-c3ccccc32)C(CC(=O)Nc2ccc(C)cc2)C1 (stereo not shown) [Compound 187, 4-(2-ETHYLAMINO-ACETYL)-2-(P-TOLYLCARBAMOYL-METHYL)-PIPERAZINE-1-CARBOXYLIC ACID 9H-FLUOREN-9-YLMETHYL ESTER]	10 to 50 µM
Cc1ccc(NC(=O)C(CCCN)NC(=O)Nc2ccc(-c3ccccc3)cc2)cc1 [Compound 188, (S)-5-AMINO-2-(3-BIPHENYL-4-YL-UREIDO)-PENTANOIC ACID P-TOLYLAMIDE]	> 50 µM
Cc1ccc(NC(=O)[C@H](CCCN)NC(=O)Nc2ccc(OCc3ccccc3)cc2)cc1 [Compound 189, (S)-5-AMINO-2-[3-(4-BENZYLOXY-PHENYL)-UREIDO]-PENTANOIC ACID P-TOLYLAMIDE]	> 50 µM
Cc1ccc(NC(=O)[C@H](CCCN)NC(=O)Nc2ccc3c(c2)Cc2ccccc2-3)cc1 [Compound 190, (S)-5-AMINO-2-[3-(9H-FLUOREN-2-YL)-UREIDO]-PENTANOIC ACID P-TOLYLAMIDE]	< 10 µM
Cc1ccc(NC(=O)C(CCCN)NC(=O)Nc2ccc(-c3ccccc3)cc2)cc1 [Compound 191, (R)-5-AMINO-2-(3-BIPHENYL-4-YL-UREIDO)-PENTANOIC ACID P-TOLYLAMIDE]	> 50 µM
Cc1ccc(NC(=O)[C@@H](CCCN)NC(=O)Nc2ccc(OCc3ccccc3)cc2)cc1 [Compound 192, (R)-5-AMINO-2-[3-(4-BENZYLOXY-PHENYL)-UREIDO]-PENTANOIC ACID P-TOLYLAMIDE]	> 50 µM
Cc1ccc(NC(=O)[C@@H](CCCN)NC(=O)Nc2ccc3c(c2)Cc2ccccc2-3)cc1 [Compound 193, (R)-5-AMINO-2-[3-(9H-FLUOREN-2-YL)-UREIDO]-PENTANOIC ACID P-TOLYLAMIDE]	< 10 µM

Compound	IC50
Cc1ccc(NC(=O)[C@H](CCCCN)NC(=O)Nc2ccc(O)cc2)cc1 [Compound 194, (S)-6-AMINO-2-[3-(4-HYDROXY-PHENYL)-UREIDO]-HEXANOIC ACID P-TOLYLAMIDE]	> 50 µM
NCCCC[C@@H](NC(=O)NC1c2ccccc2-c2ccccc21)C(=O)Nc1ccc(C2CCCCC2)cc1 [Compound 195, (R)-6-AMINO-2-[3-(9H-FLUOREN-9-YL)-UREIDO]-HEXANOIC ACID (4-CYCLOHEXYL-PHENYL)-AMIDE]	< 10 µM
Cc1ccc(NC(=O)[C@H](CCCCN)NC(=O)Nc2ccc(OCc3ccc([N+](=O)[O-])cc3)cc2)cc1 [Compound 196, (S)-6-AMINO-2-{3-[4-(4-NITRO-BENZYLOXY)-PHENYL]-UREIDO}-HEXANOIC ACID P-TOLYLAMIDE]	10 to 50 µM
Cc1ccc(NC(=O)CC2CNCCN2C(=O)OCC2c3ccccc3-c3ccccc32)cc1 (stereo not shown) [Compound 197, 2-(P-TOLYLCARBAMOYL-METHYL)-PIPERAZINE-1-CARBOXYLIC ACID 9H-FLUOREN-9-YLMETHYL ESTER]	> 50 µM
NCCC[C@@H](NC(=O)OCC1c2ccccc2-c2ccccc21)C(=O)Nc1ccc(C2CCCCC2)cc1 [Compound 198, (R)-[4-AMINO-1-(4-CYCLOHEXYL-PHENYLCARBAMOYL)-BUTYL]-CARBAMIC ACID 9H-FLUOREN-9-YLMETHYL ESTER]	< 10 µM
NCCC[C@H](NC(=O)OCC1c2ccccc2-c2ccccc21)C(=O)Nc1ccc(C2CCCCC2)cc1 [Compound 200, (S)-[4-AMINO-1-(4-CYCLOHEXYL-PHENYLCARBAMOYL)-BUTYL]-CARBAMIC ACID 9H-FLUOREN-9-YLMETHYL ESTER]	< 10 µM
NCCC[C@@H](NC(=O)Nc1ccc(-c2ccccc2)cc1)C(=O)Nc1ccc(C2CCCCC2)cc1 [Compound 201, (R)-5-AMINO-2-(3-BIPHENYL-4-YL-UREIDO)-PENTANOIC ACID (4-CYCLOHEXYL-PHENYL)-AMIDE]	< 10 µM
NCCC[C@@H](NC(=O)Nc1ccc(OCc2ccccc2)cc1)C(=O)Nc1ccc(C2CCCCC2)cc1 [Compound 202, (R)-5-AMINO-2-[3-(4-BENZYLOXY-PHENYL)-UREIDO]-PENTANOIC ACID (4-CYCLOHEXYL-PHENYL)-AMIDE]	< 10 µM
NCCC[C@@H](NC(=O)Nc1ccc2c(c1)Cc1ccccc1-2)C(=O)Nc1ccc(C2CCCCC2)cc1 [Compound 203, (R)-5-AMINO-2-[3-(9H-FLUOREN-2-YL)-UREIDO]-PENTANOIC ACID (4-CYCLOHEXYL-PHENYL)-AMIDE]	< 10 µM
Cc1ccc(NC(=O)[C@H](CCCCN)NC(=O)Nc2cccc(OCc3ccccc3)c2)cc1 [Compound 204, (S)-6-AMINO-2-[3-(3-BENZYLOXY-PHENYL)-UREIDO]-HEXANOIC ACID P-TOLYLAMIDE]	> 50 µM
Cc1ccc(NC(=O)[C@@H](CCCCN)NC(=O)Nc2cccc(OCc3ccccc3)c2)cc1 [Compound 205, (R)-6-AMINO-2-[3-(3-BENZYLOXY-PHENYL)-UREIDO]-HEXANOIC ACID P-TOLYLAMIDE]	> 50 µM
NCCCC[C@H](NC(=O)OCC1c2ccccc2-c2ccccc21)C(=O)Nc1cccc2[nH]ccc12 [Compound 208, (S)-[5-AMINO-1-(1H-INDOL-4-YLCARBAMOYL)-PENTYL]-CARBAMIC ACID 9H-FLUOREN-9-YLMETHYL ESTER]	< 10 µM
CNc1ccc(NC(=O)[C@H](CCCCN)NC(=O)OCC2c3ccccc3-c3ccccc32)cc1 [Compound 209, (S)-[5-AMINO-1-(4-METHYLAMINO-PHENYLCARBAMOYL)-PENTYL]-CARBAMIC ACID 9H-FLUOREN-9-YLMETHYL ESTER]	10 to 50 µM
NCCCC[C@H](NC(=O)OCC1c2ccccc2-c2ccccc21)C(=O)Nc1ccc(OCc2ccccc2)c(Cl)c1 [Compound 210, (S)-[5-AMINO-1-(4-BENZYLOXY-3-CHLORO-PHENYLCARBAMOYL)-PENTYL]-CARBAMIC ACID 9H-FLUOREN-9-YLMETHYL ESTER]	< 10 µM
NCCCC[C@H](NC(=O)OCC1c2ccccc2-c2ccccc21)C(=O)Nc1cccc(OCc2ccccc2)c1 [Compound 211, (S)-[5-AMINO-1-(3-BENZYLOXY-PHENYLCARBAMOYL)-PENTYL]-CARBAMIC ACID 9H-FLUOREN-9-YLMETHYL ESTER]	10 to 50 µM
Cc1ccc(NC(=O)C(CCCCN)NC(=O)Nc2cccc(Cc3ccccc3)c2)cc1 [Compound 212, (S)-6-AMINO-2-[3-(3-BENZYL-PHENYL)-UREIDO]-HEXANOIC ACID P-TOLYLAMIDE]	10 to 50 µM
Cc1ccc(NC(=O)[C@H](CCCCN)NC(=O)Nc2ccc3c(c2)OCCO3)cc1 [Compound 213, (S)-6-AMINO-2-[3-(2,3-DIHYDRO-BENZO[1,4]DIOXIN-6-YL)-UREIDO]-HEXANOIC ACID P-TOLYLAMIDE]	> 50 µM
Cc1cc2cc(NC(=O)[C@H](Cc3ccc(CN)cc3)NC(=O)OCC3c4ccccc4-c4ccccc43)ccc2[nH]1 [Compound 215, (S)-[2-(4-AMINOMETHYL-PHENYL)-1-(2-METHYL-1H-INDOL-5-YLCARBAMOYL)-ETHYL]-CARBAMIC ACID 9H-FLUOREN-9-YLMETHYL ESTER]	10 to 50 µM

— patent publication US20070021434A1, “NON-NUCLEOSIDE ANTI-HEPACIVIRUS AGENTS AND USES THEREOF” (Migenix Inc., priority 2005, published 2007)
